Test results taken from patent US20220009976A1, “Peptide Possessing Mesenchymal-Stem-Cell Mobilizing Activity” (StemRIM Inc., priority 2018, published 2022).

Columns and labels:
mesenchymal stem cells [1] = experiment: Solid-phase culture of peripheral blood after administration of HMGB1 peptide 1-44 (earlier experiments of the inventors); type: in vivo; settings: vs peripheral blood after administration of physiological saline
Excerpt: In addition, the colonies obtained as a result of culturing, on a solid phase, peripheral blood after administration of a peptide consisting of amino acid residues 1-44 of the human HMGB1 protein (hereinafter, HMGB1 peptide 1-44), which has an activity of mobilizing mesenchymal stem cells into peripheral blood, have been confirmed to have adherability to solid phase and self-renewal ability, and to be PDGFRα positive. They have also been confirmed to have a gene expression profile characteristic to mesenchymal stem cells, based on the results of clustering the transcriptome analysis data and performing gene ontology analysis.
Furthermore, it has been confirmed that the number of colonies obtained by solid-phase culture is larger in the peripheral blood after administration of HMGB1 peptide 1-44 than in the peripheral blood after administration of physiological saline.
Therefore, the colonies obtained as a result of culturing peripheral blood on a solid phase are mesenchymal stem cells, and it is considered that an increase in the number of colonies detected in a solid phase culture of peripheral blood indicates an increase in the number of mesenchymal stem cells in the peripheral blood.

mesenchymal stem cells [2] = experiment: Colony assay of peripheral blood collected after peptide administration (mobilization of mesenchymal stem cells into peripheral blood); type: in vivo, C57BL/6J mice; settings: 4 mg/kg tail vein; blood collected 14 hours after administration; 10 days culture; colonies of 50 or more cells; vs physiological saline
Method: C57BL/6J mice (8 weeks old, male, body weight 25 g) were prepared and divided into a group administered with the artificial sequence peptide […] and a control group. The peptide was administered by injecting into the tail vein, a solution of peptide 1r10 adjusted to a concentration of […] using physiological saline as a solvent in an amount of 100 μL/animal (4 mg/kg dose of peptide). For the control group, physiological saline was injected into the tail vein in an amount of 100 μL/animal. […]
The supernatant (sample containing peripheral blood-derived cells) obtained by the above procedure was seeded on collagen I-coated 6-well plates (Corning, Cat No. 356400), and cultured for 10 days under the conditions of 37° C., 5% CO2 and 5% O2, using a medium containing Expansion Medium prepared using the MesenCult Expansion Kit (STEMCELL Technologies, Cat No. ST-05513) according to the manual of the kit, 1% L-glutamine (Nacalai Tesque Inc.), 10 μM ROCK inhibitor (Y27632, Tocris Bioscience) and 1% penicillin/streptomycin (Nacalai Tesque Inc.) (all numerical values are final concentrations). […] On the 10th day of culture, cells on the plates were stained with a Differential Quik Stain Kit (Sysmex Corporation, Cat No. 16920), and the number of colonies containing 50 or more cells was counted. […]

[3] = system: cerebral infarction model rat; experiment: Efficacy in cerebral infarction model rat (right MCA occlusion); type: in vivo, Crl:CD (SD) rats; settings: 2 mg/kg tail vein at 105 minutes and 24 hours after right MCA occlusion; 48 hours after occlusion; p<0.01 vs control 34.1±1.1%
Excerpt: Crl:CD (SD) rats (7 weeks old, male) were obtained from Charles River Laboratories, Japan, and after 6 days of acclimation, they were divided into the control group (n=8) and the peptide-administered group (n=8). On the following day of grouping, the rats were fixed in the supine position under 2% isoflurane inhalation anesthesia (anesthesia background: laughing gas:oxygen=7:3). To regulate body temperature during surgery, a thermometer probe connected to a digital thermometer was inserted into the rectum, and changes in the rectal temperature before and after surgery were monitored. […]
Forty-eight hours after the right MCA occlusion, the animals were decapitated under anesthesia with sodium pentobarbital (50 mg/kg, intraperitoneal administration), and the entire brain was excised to prepare brain sections with a thickness of 2 mm. […] The resulting photographs were subjected to image analysis to obtain actual measurements of the cerebral infarction area and cross-sectional area of the brain, and the cerebral infarct volume and the total brain volume from 4 mm anterior to bregma to 6 mm posterior to bregma were calculated using the calculation formula below. In addition, the cerebral infarction volume ratio was calculated from the cerebral infarction volume and the total volume of the brain (cerebral infarction volume ratio (%)=cerebral infarction volume/total brain volume×100).

[4] = system: atopic dermatitis model mice; experiment: Efficacy in MC903-induced atopic dermatitis (AD) model mice; type: in vivo, C57BL/6 mice
Excerpt: MC903 (generic name: Calcipotriol) was used to induce atopic dermatitis (hereinafter, also referred to as “AD”) in mice. In addition, the peptide 1r10 (TFA salt) described in Example 1 was used as the test substance.
C57BL/6 mice (C57BL/6JJcl, 7-8 weeks old, male, microbial grade SPF) were obtained from Japan Claire Co., Ltd., acclimated in the animal breeding room for 5 days or more, and then subjected to the following experiments. An ethanol-adjusted MC903 solution was applied to the skin of the auricle of the mice at a dose of 2.25 nmol MC903/ear/once/day five times a week for 2 weeks (ten times in total) to induce atopic dermatitis (AD). This MC903-induced AD model is a model in which AD-like pathology can be reproduced in a short period of time (1-2 weeks) by artificially inducing the secretion of TSLP from epithelial cells, which is actually seen in AD patients, thereby eliciting a series of type 2 immune response cascades (Li M et al., Proc Natl Acad Sci USA. 2006; 103:11736-41).
They were then divided into the control group and the peptide administration group (n=7 in each group), while the groups were equalized based on the auricle thickness in consideration of the difference in the severity of inflammation between individuals. For peptide administration, the solution of peptide 1r10 adjusted to 0.3 mg/mL with physiological saline was injected into the tail vein at a volume of 5 mL/kg (peptide dose of 1.5 mg/kg) twice in total, once on the grouping day (Day 15) and once during the following 4 days (Day 16 to Day 19). For the control group a solution of bovine serum albumin (BSA) adjusted to 0.3 mg/mL with physiological saline was injected into the tail vein at a volume of 5 mL/kg (BSA dose of 1.5 mg/kg) twice in total, once on the grouping day (Day 15) and once during the following 4 days (Day 16 to Day 19).
During the peptide administration period (Day 15 to Day 19), ear swellings were measured daily to determine edema. Scaling, which is the main symptom of AD, was determined by photography (three times a week) using a digital camera (E-M1 II; Olympus) from a fixed base at a height of 13-14 cm from the auricle.
On the 4th day (Day 19) after the start of peptide administration, mice were placed under the influence of isoflurane anesthesia and euthanized with cervical spine dislocation. The skin at auricular inflammation site and its surroundings was quickly excised and collected while on ice to prevent protein denaturation of the sample. After removing excess hair and skin with tweezers, the collected auricular skin was immersed in 10% formalin and fixed at 4° C. overnight while shaking on ice using a shaker. After fixation, the skin was thoroughly washed with phosphate buffered saline (PBS) and trimmed, and then a paraffin block was made using an automatic embedding device (Excelsior ES; Thermo Scientific) with attention to the tissue polarity in the dorsoventral axis/left-right axis specific to the skin). Then, it was sliced (5 μm thick) with a rotary microtome (HM 325; Thermo Scientific), fixed on a slide glass, and subjected to various staining. As pathological analysis, skin thickness and infiltration of immune cells were evaluated by histochemical staining and fluorescent immunostaining, respectively.
To quantitatively evaluate the healing condition of the site of inflammation, hematoxylin-eosin (HE) staining of the paraffin thin sections (5 μm thick) of skin tissue generated as described above was performed to measure the dermal thickness. Specifically, three sections were prepared for each individual, and each section was photographed with a microscope (Keyence BZ-X710) at one site each of the center of inflammation, head side, and tail side (that is, a total of 9 sites were photographed per individual). […]

[5] = system: inflammatory bowel disease (IBD) model mice; experiment: Efficacy in DSS-induced inflammatory bowel disease (IBD) model mice; type: in vivo, BALB/c mice
Method: Dextran sodium sulfate (DSS) (molecular weight 36,000 to 50,000, manufactured by MP Biomedicals, Product No. 160110) was dissolved in purified water to prepare a 2.5% (w/v) DSS aqueous solution. In addition, the peptide 1r10 (TFA salt) described in Example 1 was used as the test substance.
BALB/c mice (9 weeks old, male) were allowed to drink the 2.5% DSS aqueous solution freely for 7 days to induce colitis. After that, the drinking was changed from DSS to tap water, and the large intestine was collected 3 days later (10 days after the start of drinking the DSS aqueous solution).
The IBD model mice prepared as described above were divided into the peptide 1r10 administration group (n=8) and the control group (n=8). Peptide administration was carried out by injecting into the tail vein, the peptide 1r10 solution adjusted to a concentration of 0.5 mg/mL using physiological saline as a solvent at an amount of 10 mL/kg on Days 1, 4, 7, 8 and 9 after the start of drinking the DSS aqueous solution (peptide dose of 5 mg/kg). The control group was injected with physiological saline solution at a dose of 10 mL/kg into the tail vein on Days 1, 4, 7, 8 and 9 after the start of drinking the DSS aqueous solution.
For 10 days from the start of drinking the DSS aqueous solution, the mice were weighed and observed for the symptoms (stool condition and bleeding) every day except Saturdays, Sundays, and holidays, and the degree of symptoms was evaluated by calculating the DAI (disease activity index) score. The DAI score was calculated by scoring the weight loss rate, stool condition, and stool bleeding as shown in the table below, and summing the scores of these three items. The scoring criteria were partly based on the method of Li et al. (PLoS One. 2015 Dec. 7; 10 (12): e0144101).
In addition, the length of the large intestine (from the colon to the rectum) collected 10 days after the start of drinking DSS was measured using a digital caliper.

[6] = 5 mg/kg tail vein, 8 to 10 days after the start of drinking DSS, vs control group

Substance | number of colonies obtained by solid-phase culture of peripheral blood (mesenchymal stem cells [1]) | number of colonies obtained on the plate by culturing the peripheral blood-derived cells (mesenchymal stem cells [2]) | cerebral infarction volume ratio (mean±standard error) [3] | dermis thickness ([4]; 1.5 mg/kg tail vein twice, 4th day (Day 19) after start of administration, HE staining, vs control group) | scaling in the auricle ([4]; 1.5 mg/kg tail vein twice, 4 days after start of peptide administration, vs control group (BSA)) | auricular thickness (edema) ([4]; 1.5 mg/kg tail vein twice, Day 15 to Day 19, vs control group (BSA)) | number of CD45-positive cells in auricular skin sections ([4]; 1.5 mg/kg tail vein twice, Day 19, per high-power field (400×), vs control group) | changes in mouse body weight during the period of the study ([4]; Day 15 to Day 19, between the groups, p>0.05, repeated one-way ANOVA) | dermis thickness ([4]; dose of 0.5 mg/kg, vs control group, data not shown) | body weight 10 days after the start of drinking the DSS aqueous solution ([5]; 5 mg/kg tail vein on Days 1, 4, 7, 8 and 9, Day 10) | changes in mouse body weight (degree of decrease) ([5]; 5 mg/kg tail vein on Days 1, 4, 7, 8 and 9 after start of drinking DSS, vs control group (saline)) | DAI (disease activity index) score [5, 6] | stool score (sum of stool condition score and bleeding score) [5, 6] | colon length ([5]; 5 mg/kg tail vein, ten days after the start of drinking DSS, vs control group)
HMGB1 peptide 1-44: peptide consisting of amino acid residues 1-44 of the human HMGB1 protein, which has an activity of mobilizing mesenchymal stem cells into peripheral blood (MGKGDPKKPRGKMSSYAFFVQTCREEHKKKHPDASVNFSEFSKK; UniProt P09429 1-44, looked up, fragment) | larger |  |  |  |  |  |  |  |  |  |  |  |  | 
peptide 1r10: artificial sequence peptide consisting of the amino acid sequence of SEQ ID NO: 1, chemically synthesized (IMWLCQYFFQCHKCAVKKKTWKEKKDRRHP) |  | larger | 27.2±1.2% | statistically significant decrease | reduction of scaling | statistically significant reduction | statistically significant decrease | not significantly different | statistically significant decrease | tendency to recover body weight | slower | lower | lower | longer
